# Test results as given in ChEMBL document CHEMBL3430912, “GSK Tres Cantos Anti-Kinetoplastid Screening (TCAKS) Data”.
# Columns and labels:
# Leishmania donovani [1] = experiment: GSK_TCAKS: pIC50 Leishmania donovani viability assay using fluorescence intensity. Assay plates (1536-well) were prepared by adding 30nL per well of compound. For single shot assay, the final compound concentration was 5uM. […] Briefly, eGFP LdBOB axenic amastigotes were harvested, fixed and counted in a CASY cell counter (Roche-Applied Science). A final concentration of 1.5 * 10^5 cells per well were prepared in amastigote media containing 500 U/mL penicillin/streptomycin (Invitrogen) and 6uL was dispensed to each experimental well using a Multidrop Combi dispenser (Thermo Scientific). 6uL of assay media was dispensed to control columns used as reference for 100% compound response. Following incubation for 72 h at 37C, 5% CO2, 2 uL of resazurin was added to each well at a final concentration of 0.5 mM in phosphate buffered saline (PBS) with IGEPAL (Sigma-Aldrich), 0.05% (v/v).; type: functional, organism-based
# [2] = test system: Trypanosoma brucei brucei; experiment: GSK_TCAKS: pIC50 Trypanosoma brucei viability assay using fluorescence intensity. Assay plates (1536-well) were prepared by dispensing 25nL of compound solution per well using an Echo acoustic dispenser (Labcyte).; type: functional, organism-based; conditions: Lister 427, 2 h
# [3] = GSK_TCAKS: pIC50 HepG2 human cell line viability assay using luminiscence. […] Seeding density was checked to ensure that new mono-layers were not more than 50% confluent at the time of harvesting. Cell suspension was added to 500 mL of the same medium at a final density of 1.2 * 10^5 cells/mL. This cell suspension was dispensed (25 uL, 3000 cells per well) into 384-well clear-bottom plates using a Multidrop Combi dispenser. Prior to addition of the cell suspension, the screening compounds (250 nL) were pre-dispensed into the plates with an Echo liquid handler. Plates were incubated for 48 h at 37C, 5% CO2. After incubation, plates equilibrated at room temperature for 30 min before proceeding to develop the luminescent signal. The signal developer, CellTiter-Glo Reagent, was allowed to equilibrate at room temperature for 30 min and added to the plates (25uL per well) using a Multidrop Combi dispenser. Plates were left for 10 min at room temperature for stabilization and then read using a ViewLux.; type: toxicity, cell-based
# Leishmania donovani [4] = experiment: (§1) GSK_TCAKS: pIC50 Leishmania donovani Imaging: Infected Macrophages. Assay plates (384-well) were prepared by adding 250nL of compound to each well. For single shot assay, the final compound concentration was 5 uM. […] Automated image analysis was performed with a script developed on Acapella High Content Imaging and Analysis Software (PerkinElmer). Output: Percent of infected macrophage cells were reported for each well.; type: functional, organism-based, Homo sapiens; conditions: THP-1
# Trypanosoma cruzi [5] = experiment: (§2) GSK_TCAKS: pIC50 Trypanosoma cruzi Imaging: Infected Cells. […] Cells were then washed once with PBS before infection. T. cruzi trypomastigotes, collected at days 5 to 8 after infection from LLC-MK2 parasite infected cultures, were allowed to swim out for 4h at 37C from a centrifuged pellet (2,500 rpm/10 min/room temperature). Trypomastigotes were then collected and counted in a CASY Cell Counter. Trypomastigotes, in supplemented DMEM, were added to H9c2 cultures in a multiplicity of infection of 1 and incubated for 18 h. Cells were washed once with PBS before incubation of the infected H9c2 monolayer with trypsin (Life-Technologies) to detach cells from the flask. Cells were counted in a CASY Cell Counter using a 150 um capillary and their density set at 5 * 10^4 cells per mL in supplemented assay DMEM. Infected H9c2 were dispensed into 384-well poly-lysine coated assay plates at 50uL per well using a Multidrop Combi dispenser. After seeding them, the plates were incubated at 37C, 5% CO2 for 72h. Cultures were then fixed and stained by addition of 50 uL of a solution containing 8% formaldehyde and 4 uM DRAQ5 DNA dye (BioStatus, UK) per well. […] Five images were collected per well for reliable statistical analysis. Automated image analysis was performed with a script developed on Acapella High Content Imaging and Analysis Software (PerkinElmer). Output: percentage of infected cells per well as a second infection marker.; type: functional, organism-based, Rattus norvegicus; conditions: H9c2, 4 h
# Leishmania donovani [6] = experiment: as §1, with “Amastigotes/Macrophages.” for “Infected Macrophages.”, “Average number” for “Percent”, “amastigotes per” for “infected”, “cell” for “cells”; type: functional, organism-based, Homo sapiens; conditions: THP-1
# Trypanosoma cruzi [7] = experiment: GSK_TCAKS: pIC50 Trypanosoma cruzi Imaging: Amastigotes/Cell. […] Cells were then washed once with PBS before infection. T. cruzi trypomastigotes, collected at days 5 to 8 after infection from LLC-MK2 parasite infected cultures, were allowed to swim out for 4h at 37C from a centrifuged pellet (2,500 rpm/10 min/room temperature). Trypomastigotes were then collected and counted in a CASY Cell Counter. Trypomastigotes, in supplemented DMEM, were added to H9c2 cultures in a multiplicity of infection of 1 and incubated for 18 h. Cells were washed once with PBS before incubation of the infected H9c2 monolayer with trypsin (Life-Technologies) to detach cells from the flask. Cells were counted in a CASY Cell Counter using a 150 um capillary and their density set at 5 * 10^4 cells per mL in supplemented assay DMEM. Infected H9c2 were dispensed into 384-well poly-lysine coated assay plates at 50uL per well using a Multidrop Combi dispenser. After seeding them, the plates were incubated at 37C, 5% CO2 for 72h. Cultures were then fixed and stained by addition of 50 uL of a solution containing 8% formaldehyde and 4 uM DRAQ5 DNA dye (BioStatus, UK) per well. […] Five images were collected per well for reliable statistical analysis. Automated image analysis was performed with a script developed on Acapella High Content Imaging and Analysis Software (PerkinElmer). Output: number of amastigotes per cell as infection level measurement.; type: functional, organism-based, Rattus norvegicus; conditions: H9c2, 4 h
# [8] = biological target: Sterol 14-alpha demethylase (Trypanosoma cruzi (strain CL Brener), UniProt Q7Z1V1); experiment: GSK_TCAKS: pIC50 CYP51 from Trypanosoma cruzi.; type: functional
# Trypanosoma cruzi [9] = experiment: GSK_TCAKS: pIC50 Trypanosoma cruzi viability assay using beta-GAL activity. This assay was run at single shot at 5uM compound concentration per well. The biological reagents consisted of NIH-3T3 host cells and trypomastigotes parasitic cells; both cell types were set to a 3.3 * 10^5 cells/mL dilution in assay DMEM by means of a CASY cell counter device using a 60um capillary. 6 uL of the mixture were dispensed per well (about 1 * 10^3 host-cells and 1 * 10^3 parasites) with a Multidrop Combi dispenser. […] In all wells, the percentage of DMSO never exceeded 0.5%. Plates incubated for four days at 37C, 5% CO2. The substrate used for the assay fluorescence intensity (FLINT) readout was resorufin-beta-D-galactopiranoside (Sigma-Aldrich) at 5uM per well. It was diluted in PBS supplemented with the soft detergent Igepal (Fluka).; type: functional, organism-based, Mus musculus; conditions: Tulahuen, NIH3T3
# Leishmania donovani [10] = experiment: as §1, with “THP-1 Host” for “Infected”, “THP-1 cell count” for “Percent of infected macrophage cells”; type: functional, organism-based, Homo sapiens
# [11] = test system: Trypanosoma brucei brucei; experiment: GSK_TCAKS: pIC50 Trypanosoma brucei viability assay using luminiscence. Assay plates (1536-well) were prepared. T. brucei cultures were harvested and counted in a CASY cell counter. A parasite suspension was prepared at a final concentration of 5 * 10^4 cells/mL in complete HMI9 medium and 6uL was dispensed to all wells containing compounds using a Multidrop Combi dispenser. 6uL of HMI9 media with 0.4% DMSO were dispensed to control columns. Plates were incubated for 24 h at 37C, 5% CO2 then tempered for 10 min at room temperature. ATP content was quantified by adding 4 uL of CellTiter-Glo Reagent (Promega) according to the manufacturer's instructions. Luminescence was measured using a ViewLux.; type: functional, organism-based; conditions: Lister 427, CASY
# Trypanosoma cruzi [12] = experiment: as §2, with “H2C9” for “Trypanosoma cruzi”, “H9c2 Host Cardiomyocytes.” for “Infected Cells.”, “Number” for “percentage”, “H9c2 Host Cardiomyocytes nuclei to determine drug-related cytotoxicity.” for “infected cells per well as a second infection marker.”; type: functional, organism-based, Rattus norvegicus; conditions: H9c2, 4 h
# Sequence of Sterol 14-alpha demethylase (Q7Z1V1 whole entry): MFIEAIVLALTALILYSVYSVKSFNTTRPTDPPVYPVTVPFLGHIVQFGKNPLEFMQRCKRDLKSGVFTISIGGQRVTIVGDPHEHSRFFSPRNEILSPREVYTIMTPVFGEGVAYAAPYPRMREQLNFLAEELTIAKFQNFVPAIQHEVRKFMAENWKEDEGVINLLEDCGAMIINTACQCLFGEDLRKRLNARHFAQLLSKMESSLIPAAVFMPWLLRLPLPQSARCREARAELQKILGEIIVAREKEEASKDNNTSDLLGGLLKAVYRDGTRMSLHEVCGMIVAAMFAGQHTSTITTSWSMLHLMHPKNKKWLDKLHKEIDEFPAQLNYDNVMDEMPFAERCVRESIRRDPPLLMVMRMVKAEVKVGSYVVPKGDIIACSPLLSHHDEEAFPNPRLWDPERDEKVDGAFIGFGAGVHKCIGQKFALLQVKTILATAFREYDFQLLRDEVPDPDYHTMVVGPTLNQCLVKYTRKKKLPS
SMILES,IC50 (Leishmania donovani [1]) [µM],IC50 [2] [µM],IC50 at 48 h [3] [µM],IC50 (Leishmania donovani [4]) [µM],IC50 (Trypanosoma cruzi [5]) [µM],IC50 (Leishmania donovani [6]) [µM],IC50 (Trypanosoma cruzi [7]) [µM],IC50 [8] [µM],IC50 (Trypanosoma cruzi [9]) [µM],IC50 (Leishmania donovani [10]) [µM],IC50 [11] [µM],IC50 (Trypanosoma cruzi [12]) [µM]
CCOc1ccc(Nc2ccc(S(=O)(=O)N3CCN(C)CC3)cc2[N+](=O)[O-])cc1OCC,0.794,6.31,> 100,7.94,> 50.1,5.01,3.16,31.6,7.94,12.6,31.6,> 50.1
O=C(NCc1ccc(Cl)cc1)C1CN(C(=O)c2ccc(F)cc2)CCS1 (configuration not stated),> 50.1,0.794,> 100,> 50.1,39.8,> 50.1,31.6,12.6,25.1,> 50.1,0.631,> 50.1
O=C(Nc1cccc(Cl)c1)Nc1ccc([N+](=O)[O-])cc1Cl,6.31,2.51,31.6,3.16,2,2,1.58,5.01,1.26,25.1,3.16,3.98
NCC(Cc1ccccc1)NC(=O)c1cnc(-c2c[nH]c3ncccc23)s1 (configuration not stated),> 50.1,0.398,79.4,15.8,> 50.1,12.6,20,1,2,6.31,1,0.631
Cc1ccc(NC(=O)c2ccnc(N3CCCC3)c2)cc1-c1cc(C(N)=O)ccc1C,25.1,0.1,> 100,39.8,10,25.1,3.16,3.98,6.31,31.6,0.251,> 50.1
Cc1nnc(-c2nc(NCc3ccc(Cl)cc3)c3cccnc3c2O)[nH]1,2,0.631,15.8,0.501,0.794,0.501,1.26,15.8,0.631,6.31,0.794,25.1
CC(=O)Nc1ccc(-c2cnc(N)c(-c3nc4ccc(F)cc4[nH]3)c2)cc1,6.31,0.631,10,1,> 50.1,0.501,> 50.1,63.1,0.631,7.94,2,0.794
Cc1ccc(NC(=O)c2ccnc(N3CCCC3)c2)cc1-c1ccsc1C(N)=O,> 50.1,0.0631,> 100,> 50.1,12.6,> 50.1,7.94,1.26,12.6,> 50.1,0.0631,> 50.1
Cc1nc(-c2ccc3c(c2)OCO3)sc1C(=O)NCc1ccc2c(c1)OCO2,2,10,> 100,0.251,0.794,0.794,0.501,5.01,3.55,> 50.1,> 39.8,> 50.1
Cc1cc(C)n(-c2nc(NC(C)(C)C)nc(N3CCOCC3)n2)n1,6.31,12.6,100,7.94,10,3.98,3.16,> 100,5.01,> 50.1,3.98,1.26
CN1C(=O)c2ccccc2Sc2ccc(NC(=O)NCc3ccco3)cc21,> 50.1,0.398,> 100,> 50.1,12.6,25.1,6.31,31.6,10,> 50.1,0.501,25.1
